Molecules are shown by their SMILES. Where only a bound is given, the exact number is not on record here.

One may read the IC50 as the concentration that gives 50% inhibition. A high value points to weaker potency in that assay.

The experiment deals with Prothrombin (Homo sapiens, UniProt P00734). The experiment is described as follows: In vitro inhibitory concentration of compound against human thrombin.

For `CCN(C(=O)C1=CCCC1C(=O)NCc1ccc(C(=N)N)cc1)c1ccc(OC)cc1` (stereo not given), 940 nM corresponded to half-maximal inhibition (IC50).

For the compound `CCN(C(=O)C1=C(C(=O)NCc2ccc(C(=N)N)cc2)CCC1)c1ccccc1`, half-maximal inhibition (IC50) was put at 28000 nM.

As for `CCN(C(=O)C1=CCCC1C(=O)NCc1ccc(C(=N)N)cc1)c1ccccc1F` (stereo not given), it took 350 nM to reach half-maximal inhibition (IC50).

For the compound `CCN(C(=O)C1=CCCC1C(=O)NCc1ccc(C(=N)N)cc1)c1cc(OC)cc(OC)c1` (stereo not given), half-maximal inhibition (IC50) was put at 210 nM.

Regarding `CCN(C(=O)C1CCC=C1C(=O)NCc1ccc(C(=N)N)cc1)c1ccccc1` (stereo not given), it took 16000 nM to reach half-maximal inhibition (IC50).

As to `CCN(C(=O)C1=CCCC1C(=O)NCc1ccc(C(=N)N)cc1)c1ccccc1C` (stereo not given), the half-inhibitory concentration (IC50) amounted to 680 nM.

`CCN(C(=O)C1=CCCC1C(=O)NCc1ccc(C(=N)N)cc1)c1cc(Cl)ccc1C` (stereo not given) displayed a concentration for half-maximal inhibition (IC50) of 220 nM.

As for `CCN(C(=O)C1=CCCCC1C(=O)NCc1ccc(C(=N)N)cc1)c1ccccc1C` (stereo not given), the IC50 worked out at 4600 nM.

Take `CCN(C(=O)C1=CCCCC1C(=O)NCc1ccc(C(=N)N)cc1)c1ccccc1` (stereo not given): the IC50 came out at 3800 nM.

`N=C(N)NCCC[C@H](NC(=O)[C@@H]1CCCN1C(=O)C(N)Cc1ccccc1)C(=O)O` (stereo in doubt): it took 0.017 nM to reach half-maximal inhibition (IC50).

`CCN(C(=O)C1=CCCC1C(=O)NCc1ccc(C(=N)N)cc1)c1ccccc1` (stereo not given) came in with a concentration for half-maximal inhibition (IC50) of 970 nM.

`N=C(N)c1ccc(CNC(=O)C2CCC=C2C(=O)N2CCc3ccccc32)cc1` (stereo not given): the IC50 worked out at 4600 nM.

As for `CCN(C(=O)C1=CCCC1C(=O)NCc1ccc(C(=N)N)cc1)c1ccccc1OC` (stereo not given), the 50% inhibitory concentration (IC50) amounted to 250 nM.

Compound `N=C(N)c1ccc(CNC(=O)C2=C(C(=O)NC3CCCCC3)CCC2)cc1` came in with an IC50 of 19000 nM.

In turn, `Cc1ccccc1N(CC(=O)O)C(=O)C1=C(C(=O)NCc2ccc(C(=N)N)cc2)CCC1` displayed an IC50 of 120000 nM.

Compound `CCc1cccc(N(CC)C(=O)C2=CCCC2C(=O)NCc2ccc(C(=N)N)cc2)c1` (stereo not given) showed an IC50 of 270 nM.

Compound `N=C(N)c1ccc(CNC(=O)C2=C(C(=O)N3CCc4ccccc43)CCC2)cc1` had an IC50 above 130000 nM.

Regarding `CCN(C(=O)C1CCC=C1C(=O)NCc1ccc(C(=N)N)cc1)c1cccc(OC)c1` (stereo not given), the IC50 is 7800 nM.

The compound `CCN(C(=O)C1=CCCC1C(=O)NCc1ccc(C(=N)N)cc1)c1cccc(Cl)c1` (stereo not given) displayed an IC50 of 390 nM.

`N=C(N)c1ccc(CNC(=O)C2CCCC=C2C(=O)NC2CCCCC2)cc1` (stereo not given) registered an IC50 above 130000 nM.

The compound `CCN(C(=O)C1=C(C(=O)NCc2ccc(C(=N)N)cc2)CCC1)c1cc(Cl)ccc1C` displayed an IC50 of 23000 nM.

As to `CCN(C(=O)C1CCC=C1C(=O)NCc1ccc(C(=N)N)cc1)c1ccccc1F` (stereo not given), half-maximal inhibition (IC50) required 93000 nM.

Consider `Cc1ccccc1N(CC(=O)O)C(=O)C1=CCCC1C(=O)NCc1ccc(C(=N)N)cc1` (stereo not given), for which half-maximal inhibition (IC50) required 1300 nM.

For the compound `N=C(N)c1ccc(CNC(=O)C2CCCC=C2C(=O)N2CCCCC2)cc1` (stereo not given), the 50% inhibitory concentration (IC50) was 38000 nM.

Compound `CCc1cccc(N(C(=O)C2=CCCC2C(=O)NCc2ccc(C(=N)N)cc2)C2CCCCC2)c1` (stereo not given) came in with a half-inhibitory concentration (IC50) of 260 nM.

`CCN(C(=O)C1=CCC[C@H]1C(=O)NCc1ccc(C(=N)N)cc1)c1cccc(OC)c1` gave an IC50 of 120 nM.

In the case of `CCN(C(=O)C1=CCCC1C(=O)NCc1ccc(C(=N)N)cc1)c1cc(OC)ccc1OC` (stereo not given), it took 73 nM to reach half-maximal inhibition (IC50).

The compound `CC1Cc2ccccc2N1C(=O)C1=CCCC1C(=O)NCc1ccc(C(=N)N)cc1` (stereo not given) displayed an IC50 of 3400 nM.

Consider `CCN(C(=O)C1=C(C(=O)NCc2ccc(C(=N)N)cc2)CCC1)c1cccc(OC)c1`, for which the IC50 was determined as 24000 nM.

Compound `COc1ccc(OC)c(N(C(=O)C2=CCCC2C(=O)NCc2ccc(C(=N)N)cc2)C2CCCCC2)c1` (stereo not given) gave an IC50 of 49 nM.

In turn, `N=C(N)c1ccc(CNC(=O)C2CCCC=C2C(=O)Nc2ccccc2)cc1` (stereo not given) showed a half-inhibitory concentration (IC50) of 130000 nM.

Regarding `CCN(C(=O)C1=CCCC1C(=O)NCc1ccc(C(=N)N)cc1)c1cccc(OC)c1` (stereo not given), the IC50 stood at 240 nM.

With `CCN(C(=O)C1=CCCC1C(=O)NCc1ccc(C(=N)N)cc1)c1cccc(F)c1` (stereo not given), the IC50 worked out at 630 nM.

For the compound `N=C(N)c1ccc(CNC(=O)C2CCC=C2C(=O)N2CCCCC2)cc1` (stereo not given), the IC50 is 6000 nM.

Turning to `N=C(N)c1ccc(CNC(=O)C2CCCC=C2C(=O)NCc2ccccc2)cc1` (stereo not given), the half-inhibitory concentration (IC50) was 109000 nM.

The values above are taken from ChEMBL document CHEMBL1144919, “Synthesis of novel thrombin inhibitors. Use of ring-closing metathesis reactions for synthesis of P2 cyclopentene- and cyclohexenedicarboxylic acid derivatives” (J Med Chem, 2003).
